Our source for the remaining binding values is patent US12275731B2, “Azaindole inhibitors of wild-type and mutant forms of LRRK2” (DANA-FARBER CANCER INSTITUTE, INC., priority 2018, dated 2025).

What all share (assay): KinomeScan profiling
Format in all cases: binding

Assay [1] deals with T1, JAK1(JH2domain-pseudokinase) (Homo sapiens, UniProt P23458).
T1 construct: JAK1(JH2domain-pseudokinase); purchased KinomeScan®
As to conditions: read-out: % control. As for the experimental part: (§1) The kinase selectivity of inventive compounds 77, 96 and 101 was evaluated by KinomeScan®. KinomeScan® analysis was performed against a near comprehensive panel of 468 kinases. The control percentage (% control) for inventive compounds at 1 μM in DMSO was determined by Equation 1: % control=(inventive compound−positive control)/(negative control−positive control)×100%, Equation 1
(§2) wherein the positive control is a compound with a % control value of 0% relative light units (RLU), and the negative control (i.e., DMSO) has % control value of 100% RLU. The enzyme selectivity in the present invention is defined as follows: inventive compounds are considered active for an enzyme when the observed % control is less than 35% (<35%).

The target of a further assay is T2, MEK6 (Homo sapiens, UniProt P52564).
T2 sequence (P52564 1-334): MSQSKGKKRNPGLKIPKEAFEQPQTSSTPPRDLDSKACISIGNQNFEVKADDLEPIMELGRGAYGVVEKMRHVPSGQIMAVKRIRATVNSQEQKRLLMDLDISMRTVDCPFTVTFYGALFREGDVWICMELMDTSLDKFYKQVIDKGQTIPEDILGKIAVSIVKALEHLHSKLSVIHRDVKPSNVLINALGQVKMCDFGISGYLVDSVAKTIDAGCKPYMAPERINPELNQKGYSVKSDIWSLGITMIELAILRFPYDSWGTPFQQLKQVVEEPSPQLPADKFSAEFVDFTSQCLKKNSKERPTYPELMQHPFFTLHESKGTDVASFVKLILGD
As to conditions: MEK6, 1 μM; read-out: % control. As for the experimental part:
as §1, §2

In the next assay the target is T3, S6K1 (Homo sapiens, UniProt P23443).
T3 construct: purchased KinomeScan® (panel service)
As to conditions: S6K1, 1 μM; read-out: % control. As to the method:
as §1, §2

Assay [2] deals with T4, RSK4(Kin.Dom.1-N-terminal) (Homo sapiens, UniProt Q9UK32).
T4 construct: ribosomal S6 Kinase 4 (RSK4)(Kin.Dom.1-N-terminal)
The note with it: read-out: % control. As for the experimental part:
as §1, §2

In a further assay the target is T5, CSNK1A1L (Homo sapiens, UniProt Q8N752).
T5 sequence (Q8N752 1-337): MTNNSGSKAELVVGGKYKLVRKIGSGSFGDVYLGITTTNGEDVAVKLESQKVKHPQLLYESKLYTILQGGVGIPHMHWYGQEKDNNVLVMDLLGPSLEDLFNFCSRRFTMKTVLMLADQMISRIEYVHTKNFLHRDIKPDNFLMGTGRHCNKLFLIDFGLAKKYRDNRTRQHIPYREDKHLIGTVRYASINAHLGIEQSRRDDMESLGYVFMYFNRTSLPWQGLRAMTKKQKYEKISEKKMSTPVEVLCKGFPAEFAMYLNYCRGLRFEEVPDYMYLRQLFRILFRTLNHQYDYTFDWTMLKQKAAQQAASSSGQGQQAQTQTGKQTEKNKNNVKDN
As to conditions: read-out: % control. As to the method:
as §1, §2

The next assay addresses T6, ACVR2B (Homo sapiens, UniProt Q13705).
T6 construct: purchased KinomeScan®
The note with it: read-out: % control. As for the experimental part: as §1, §2

The next assay addresses T7, FLT3(K663Q) (Homo sapiens, UniProt P36888, K663Q).
T7 sequence (P36888 27-993 K663Q): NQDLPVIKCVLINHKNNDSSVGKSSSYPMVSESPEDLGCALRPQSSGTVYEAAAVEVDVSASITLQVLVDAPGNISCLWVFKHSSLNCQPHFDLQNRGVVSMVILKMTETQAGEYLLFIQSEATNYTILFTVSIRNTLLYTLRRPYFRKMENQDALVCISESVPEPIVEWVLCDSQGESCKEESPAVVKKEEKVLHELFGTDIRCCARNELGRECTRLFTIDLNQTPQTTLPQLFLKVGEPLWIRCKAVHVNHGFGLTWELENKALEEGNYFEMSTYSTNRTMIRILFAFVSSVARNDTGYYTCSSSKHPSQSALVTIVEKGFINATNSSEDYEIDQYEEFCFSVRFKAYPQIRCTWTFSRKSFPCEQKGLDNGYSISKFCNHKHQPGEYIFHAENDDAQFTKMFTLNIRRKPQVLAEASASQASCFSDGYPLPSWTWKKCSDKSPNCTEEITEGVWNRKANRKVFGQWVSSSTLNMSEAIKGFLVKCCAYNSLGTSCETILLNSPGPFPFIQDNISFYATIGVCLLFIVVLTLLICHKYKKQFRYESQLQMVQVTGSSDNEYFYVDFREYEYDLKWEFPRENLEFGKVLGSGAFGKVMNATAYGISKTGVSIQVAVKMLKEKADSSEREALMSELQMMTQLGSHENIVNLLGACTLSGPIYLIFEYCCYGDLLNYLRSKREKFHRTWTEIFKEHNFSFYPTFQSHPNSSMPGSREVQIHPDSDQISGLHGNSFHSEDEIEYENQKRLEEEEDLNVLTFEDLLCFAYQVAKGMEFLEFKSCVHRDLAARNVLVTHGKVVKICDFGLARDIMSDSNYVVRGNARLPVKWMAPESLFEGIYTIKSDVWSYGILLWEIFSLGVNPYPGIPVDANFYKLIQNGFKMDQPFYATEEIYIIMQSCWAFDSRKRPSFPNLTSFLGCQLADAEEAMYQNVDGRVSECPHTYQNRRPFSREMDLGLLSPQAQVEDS
As to conditions: read-out: % control. As to the method: as §1, §2

The next assay deals with TESK1 (Homo sapiens, UniProt Q15569). The note with it: TESK1, 1 μM; read-out: % control. As to the method:
as §1, §2

For the next assay, the target named is BTK (Homo sapiens, UniProt Q06187). As to conditions: read-out: % control. As to the method:
as §1, §2

In another assay the target is NEK7 (Homo sapiens, UniProt Q8TDX7). The note with it: NEK7, 1 μM; read-out: % control. As to the method:
as §1, §2

Another assay deals with CSNK2A2 (Homo sapiens, UniProt P19784). As to conditions: CSNK2A2, 1 μM; read-out: % control. As to the method:
as §1, §2

T1 sequence (P23458 583-855 limits assumed): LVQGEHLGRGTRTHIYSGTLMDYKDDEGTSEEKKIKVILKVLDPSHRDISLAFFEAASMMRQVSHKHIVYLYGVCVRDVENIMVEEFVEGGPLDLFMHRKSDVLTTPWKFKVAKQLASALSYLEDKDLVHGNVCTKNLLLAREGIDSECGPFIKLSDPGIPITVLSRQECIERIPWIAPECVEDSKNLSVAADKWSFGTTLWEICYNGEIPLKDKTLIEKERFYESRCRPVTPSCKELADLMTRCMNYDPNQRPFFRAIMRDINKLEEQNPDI
Sequence of CSNK2A2 (P19784 whole entry): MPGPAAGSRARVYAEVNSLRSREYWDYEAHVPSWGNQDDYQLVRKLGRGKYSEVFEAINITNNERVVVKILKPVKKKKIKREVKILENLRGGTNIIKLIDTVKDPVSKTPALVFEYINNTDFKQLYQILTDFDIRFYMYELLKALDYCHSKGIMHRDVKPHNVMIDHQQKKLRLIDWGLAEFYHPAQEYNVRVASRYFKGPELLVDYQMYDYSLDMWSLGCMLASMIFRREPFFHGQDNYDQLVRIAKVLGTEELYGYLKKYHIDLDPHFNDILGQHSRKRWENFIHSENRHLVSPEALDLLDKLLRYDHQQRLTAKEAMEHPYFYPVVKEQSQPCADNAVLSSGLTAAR
Sequence of NEK7 (Q8TDX7 whole entry): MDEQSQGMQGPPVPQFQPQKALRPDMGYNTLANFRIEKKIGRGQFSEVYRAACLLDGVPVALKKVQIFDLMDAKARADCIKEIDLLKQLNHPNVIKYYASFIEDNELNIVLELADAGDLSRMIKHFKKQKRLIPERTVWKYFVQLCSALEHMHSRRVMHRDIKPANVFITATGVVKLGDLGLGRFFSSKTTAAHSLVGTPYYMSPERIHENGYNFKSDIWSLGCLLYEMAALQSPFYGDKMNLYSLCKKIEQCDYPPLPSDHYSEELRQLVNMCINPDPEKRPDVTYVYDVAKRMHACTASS
T6 sequence (Q13705 19-512): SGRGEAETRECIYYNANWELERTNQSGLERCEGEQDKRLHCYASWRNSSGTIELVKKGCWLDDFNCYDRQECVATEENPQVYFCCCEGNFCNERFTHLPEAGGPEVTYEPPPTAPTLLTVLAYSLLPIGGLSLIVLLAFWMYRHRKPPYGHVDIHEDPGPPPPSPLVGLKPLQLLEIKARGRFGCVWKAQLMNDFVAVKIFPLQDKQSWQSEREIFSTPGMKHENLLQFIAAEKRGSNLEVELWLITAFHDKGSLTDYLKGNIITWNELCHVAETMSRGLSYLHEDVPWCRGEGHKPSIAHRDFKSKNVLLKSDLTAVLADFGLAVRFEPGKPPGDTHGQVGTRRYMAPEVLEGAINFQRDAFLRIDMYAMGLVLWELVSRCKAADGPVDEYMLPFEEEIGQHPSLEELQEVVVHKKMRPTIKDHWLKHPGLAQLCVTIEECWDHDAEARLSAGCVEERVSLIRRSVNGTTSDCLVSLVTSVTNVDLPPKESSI
T4 sequence (Q9UK32 73-330 limits assumed): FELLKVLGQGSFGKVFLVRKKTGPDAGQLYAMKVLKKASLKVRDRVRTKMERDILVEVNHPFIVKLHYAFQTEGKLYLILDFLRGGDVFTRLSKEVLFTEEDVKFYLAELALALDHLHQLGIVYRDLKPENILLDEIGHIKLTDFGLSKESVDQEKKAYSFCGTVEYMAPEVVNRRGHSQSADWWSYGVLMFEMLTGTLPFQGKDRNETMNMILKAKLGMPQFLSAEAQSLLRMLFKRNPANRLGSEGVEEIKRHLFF
T3 sequence (P23443 whole entry): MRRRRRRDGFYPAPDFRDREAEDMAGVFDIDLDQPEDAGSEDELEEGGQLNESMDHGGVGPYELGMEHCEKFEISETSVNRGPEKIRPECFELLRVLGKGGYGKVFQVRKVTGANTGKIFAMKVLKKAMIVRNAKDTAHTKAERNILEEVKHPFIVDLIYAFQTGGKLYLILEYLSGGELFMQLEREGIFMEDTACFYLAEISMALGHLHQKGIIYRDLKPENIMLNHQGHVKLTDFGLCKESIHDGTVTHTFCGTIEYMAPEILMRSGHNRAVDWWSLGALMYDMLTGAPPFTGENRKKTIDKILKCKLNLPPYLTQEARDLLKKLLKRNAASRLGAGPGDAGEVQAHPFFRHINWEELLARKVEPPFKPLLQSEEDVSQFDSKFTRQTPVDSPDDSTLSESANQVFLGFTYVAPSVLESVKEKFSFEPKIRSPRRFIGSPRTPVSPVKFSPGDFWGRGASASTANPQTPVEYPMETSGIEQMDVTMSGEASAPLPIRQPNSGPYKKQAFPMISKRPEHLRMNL
Sequence of BTK (Q06187 whole entry): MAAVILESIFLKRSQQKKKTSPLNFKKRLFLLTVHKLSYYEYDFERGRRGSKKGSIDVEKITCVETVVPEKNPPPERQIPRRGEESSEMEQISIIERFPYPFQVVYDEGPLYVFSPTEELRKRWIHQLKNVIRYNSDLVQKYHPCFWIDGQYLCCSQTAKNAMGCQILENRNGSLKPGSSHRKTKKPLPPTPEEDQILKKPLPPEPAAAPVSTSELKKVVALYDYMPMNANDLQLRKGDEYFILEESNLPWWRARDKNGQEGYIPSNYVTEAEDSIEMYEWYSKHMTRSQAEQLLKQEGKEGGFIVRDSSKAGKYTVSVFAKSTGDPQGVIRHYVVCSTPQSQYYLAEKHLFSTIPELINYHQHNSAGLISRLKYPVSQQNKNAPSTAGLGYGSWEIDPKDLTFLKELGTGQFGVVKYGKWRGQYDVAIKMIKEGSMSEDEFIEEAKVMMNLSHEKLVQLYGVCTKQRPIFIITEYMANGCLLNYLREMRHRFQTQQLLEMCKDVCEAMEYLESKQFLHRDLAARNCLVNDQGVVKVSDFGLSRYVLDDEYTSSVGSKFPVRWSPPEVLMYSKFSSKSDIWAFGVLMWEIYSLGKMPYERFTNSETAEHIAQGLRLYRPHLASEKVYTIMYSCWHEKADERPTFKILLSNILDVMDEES
Sequence of TESK1 (Q15569 whole entry): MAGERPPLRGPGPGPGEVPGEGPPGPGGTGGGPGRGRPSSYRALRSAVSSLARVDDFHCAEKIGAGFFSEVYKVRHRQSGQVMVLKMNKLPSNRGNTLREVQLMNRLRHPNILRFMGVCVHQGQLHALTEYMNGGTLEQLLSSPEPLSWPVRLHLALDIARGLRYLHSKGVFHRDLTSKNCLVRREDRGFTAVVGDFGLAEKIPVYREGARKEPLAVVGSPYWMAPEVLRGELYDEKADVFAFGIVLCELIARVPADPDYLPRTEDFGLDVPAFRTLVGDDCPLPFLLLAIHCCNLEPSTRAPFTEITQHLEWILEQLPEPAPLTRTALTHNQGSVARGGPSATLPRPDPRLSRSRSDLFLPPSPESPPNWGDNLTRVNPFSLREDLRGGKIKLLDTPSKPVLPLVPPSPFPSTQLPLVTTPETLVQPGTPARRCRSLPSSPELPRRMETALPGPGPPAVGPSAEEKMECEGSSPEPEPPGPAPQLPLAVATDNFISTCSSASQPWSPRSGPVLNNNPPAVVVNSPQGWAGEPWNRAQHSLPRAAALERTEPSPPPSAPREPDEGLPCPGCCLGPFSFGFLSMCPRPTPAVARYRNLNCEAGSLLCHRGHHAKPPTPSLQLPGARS

As to `CNc1c(-c2cnn([C@H]3CCN(C(C)=O)C[C@@H]3F)c2)cnc2[nH]cc(Cl)c12` [Compound 77, 1-((3S,4S)-4-(4-(3-chloro-4-(methylamino)-1H-pyrrolo[2,3-b]pyridin-5-yl)-1H-pyrazol-1-yl)-3-fluoropiperidin-1-yl)ethan-1-one], the remaining binding at 1 µM in [1] worked out at 57%; at MEK6, 60%; at S6K1 it was 50%; in [2], 32%; at CSNK1A1L, 79%; on ACVR2B, 77%. Besides, the remaining binding at 1 µM on FLT3(K663Q) is 15%; at TESK1, 89%; on BTK, 68%; at NEK7 it was 100%; on CSNK2A2, 90%.
For `CNc1c(-c2ccc(C(=O)N3CCC(N4CCOCC4)CC3)cc2)cnc2[nH]cc(Cl)c12` [Compound 96, (4-(3-chloro-4-(methylamino)-1H-pyrrolo[2,3-b]pyridin-5-yl)phenyl)(4-morpholinopiperidin-1-yl)methanone], the remaining binding at 1 µM stood at 94% in assay [1]; 16% on MEK6; 87% on S6K1; 77% in assay [2]; 48% on CSNK1A1L; 91% on ACVR2B. The remaining binding at 1 µM at FLT3(K663Q) worked out at 15%; on TESK1 it was 74%; at BTK, 78%; on NEK7, 100%; on CSNK2A2 it was 92%.
Turning to `O=C(c1ccc(-c2cnc3[nH]cc(Cl)c3c2NC2CCCC2)cc1)N1CCC(N2CCOCC2)CC1` [Compound 101, (4-(3-chloro-4-(cyclopentylamino)-1H-pyrrolo[2,3-b]pyridin-5-yl)phenyl)(4-morpholinopiperidin-1-yl)methanone], the remaining binding at 1 µM in [1] was determined as 47%; on MEK6, 95%; on S6K1, 100%; in assay [2] it was 100%; on CSNK1A1L it was 100%; on ACVR2B, 100%. In addition, the remaining binding at 1 µM on FLT3(K663Q) turned out to be 28%; at TESK1, 99%; at BTK, 100%; on NEK7, 95%; on CSNK2A2, 100%.
